Measured values from ChEMBL document CHEMBL1139643, “Cell differentiation inducers derived from thalidomide” (2005).

Key:
Assay type in all cases: functional
HL-60 [1] = assay: Percent cell proliferation of human leukemia cell line HL-60 at 1*E-5 M
HL-60 [2] = assay: NBT positivity against human leukemia cell line HL-60 at 1*E-5 M
HL-60 [3] = assay: Percent cell proliferation of human leukemia cell line HL-60 at 3*E-6 M
HL-60 [4] = assay: NBT positivity against human leukemia cell line HL-60 at 3*E-6 M
HL-60 [5] = assay: Percent cell proliferation of human leukemia cell line HL-60 at 1*E-8 M
HL-60 [6] = assay: NBT positivity against human leukemia cell line HL-60 at 1*E-8 M
HL-60 [7] = assay: Percent cell proliferation of human leukemia cell line HL-60 at 1*E-6 M
HL-60 [8] = assay: Percent cell proliferation of human leukemia cell line HL-60 at 5*E-6 M
HL-60 [9] = assay: NBT positivity against human leukemia cell line HL-60 at 1*E-6 M
HL-60 [10] = assay: NBT positivity against human leukemia cell line HL-60 at 5*E-6 M
HL-60 [11] = assay: NBT positivity against human leukemia cell line HL-60 at 2*E-9 M
HL-60 [12] = assay: Percent cell proliferation of human leukemia cell line HL-60 at 2*E-9 M

`O=C1CCC(N2C(=O)c3ccccc3C2=O)C(=O)N1` (stereo not drawn) [THALIDOMIDE] showed a Cell proliferation (HL-60 [1]) of 101% and an NBT positivity (HL-60 [2]) of 1%.

Compound `CC1(N2C(=O)c3cccc(N)c3C2=O)CCC(=O)NC1=O` (stereo not drawn) has a Cell proliferation (HL-60 [1]) of 92% and an NBT positivity (HL-60 [2]) of 2%.

Work on `O=C1CCC(N2C(=O)c3ccccc3C2=O)C(=O)N1O` (stereo not drawn) yielded a Cell proliferation (HL-60 [1]) of 100% and an NBT positivity (HL-60 [2]) of 1%.

`CC(C)c1cccc(C(C)C)c1N1C(=O)c2cccc(O)c2C1=O` gave a Cell proliferation (HL-60 [1]) of 76% and an NBT positivity (HL-60 [2]) of 3%.

Compound `CC(C)c1cccc(C(C)C)c1N1C(=O)c2cccc(N)c2C1=O` has a Cell proliferation (HL-60 [1]) of 25%, a Cell proliferation (HL-60 [3]) of 73% and an NBT positivity (HL-60 [2]) of 16%. The NBT positivity (HL-60 [4]) was 2%.

`C=C1/C(=C\C=C2/CCC[C@]3(C)[C@@H]([C@H](C)CCCC(C)(C)O)CC[C@@H]23)C[C@@H](O)C[C@@H]1O` [CALCITRIOL] gave a Cell proliferation (HL-60 [5]) of 55% and an NBT positivity (HL-60 [6]) of 39%.

`CC(C)c1cccc(C(C)C)c1N1C(=O)c2ccc(O)cc2C1=O` gave a Cell proliferation (HL-60 [7]) of 94%, a Cell proliferation (HL-60 [3]) of 43% and a Cell proliferation (HL-60 [8]) of 10%. For the same compound, the NBT positivity (HL-60 [9]) was 3%, the NBT positivity (HL-60 [4]) was 8% and the NBT positivity (HL-60 [10]) was 55%.

Compound `CC1=C(/C=C/C(C)=C/C=C/C(C)=C/C(=O)O)C(C)(C)CCC1` [TRETINOIN] has an NBT positivity (HL-60 [11]) of 52% and a Cell proliferation (HL-60 [12]) of 45%.

For `CC(C)c1cccc(C(C)C)c1N1C(=O)c2ccc(N)cc2C1=O`, the Cell proliferation (HL-60 [1]) was 53% and the NBT positivity (HL-60 [2]) was 5%.

`CC1(N2C(=O)c3ccc(N)cc3C2=O)CCC(=O)NC1=O` (stereo not drawn) showed a Cell proliferation (HL-60 [1]) of 103% and an NBT positivity (HL-60 [2]) of 1%.

`CC(C)c1cccc(C(C)C)c1N1C(=O)c2ccccc2C1=O` showed a Cell proliferation (HL-60 [1]) of 24% and an NBT positivity (HL-60 [2]) of 9%.
